Data reported in US11109593B2, “Isoxazolin-5-one derivative and herbicide containing same as active ingredient” (HOKKO CHEMICAL INDUSTRY CO., LTD., priority 2017, dated 2021).

Key:
Format in all cases: in vivo
Echinochloa crus-galli [1] = experiment: Test Example 1: herbicidal effect test by treatment of rice paddy soil (immediately after seeding); settings: 120 g/10a active ingredient, dry weight vs untreated area, 14 days after treatment
Summary of the method: (§1)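 Applied at 120 g a.i./10 ares as diluted emulsion dropped into flooded (~3 cm) paddy soil pots right after sowing seeds 0–1 cm deep; greenhouse, two replicates. At day 14, dry weight of treated versus untreated plants gives % herbicidal rate.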

[2] = test system: broad leaf weeds (Lindernia pyxidaria and Monochoria vaginalis); experiment: as above; settings: 120 g/10a active ingredient, dry weight vs untreated area, 14 days after treatment
Summary of the method: as §1

Scirpus juncoides [3] = experiment: as above; settings: 120 g/10a active ingredient, dry weight vs untreated area, 14 days after treatment
Summary of the method: as §1

Echinochloa crus-galli [4] = experiment: Test Example 2: herbicidal effect test by treatment during growing period in paddy rice cultivation (seven days after seeding); settings: 120 g/10a active ingredient, assessed 14 days after treatment, dry weight vs untreated area
Summary of the method: (§2)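 Greenhouse flooded-pot test, seeds sown in puddled paddy soil; emulsion applied into water 7 d after seeding, 120 g a.i./10 a. Dry-weight-based herbicidal rate at 14 d, n=2.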

[5] = test system: broad leaf weeds (Lindernia pyxidaria and Monochoria vaginalis); experiment: as above; settings: 120 g/10a active ingredient, assessed 14 days after treatment, dry weight vs untreated area
Summary of the method: as §2

Scirpus juncoides [6] = experiment: as above; settings: 120 g/10a active ingredient, assessed 14 days after treatment, dry weight vs untreated area
Summary of the method: as §2

Echinochloa crus-galli [7] = experiment: Test Example 3: herbicidal effect test by treatment of dry field farming soil (one day after seeding); settings: 120 g/10a active ingredient, evaluated 14 days after treatment
Summary of the method: (§3)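 Compound emulsions are sprayed on the soil surface one day after sowing (120 g a.i. per 10 ares) before weeds emerge. Effect is expressed as percent dry-weight reduction versus untreated controls 14 days post-treatment.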

Chenopodium album [8] = experiment: as above; settings: 120 g/10a active ingredient, evaluated 14 days after treatment
Summary of the method: as §3

southern crabgrass [9] = experiment: as above; settings: 120 g/10a active ingredient, evaluated 14 days after treatment
Summary of the method: as §3

Amaranthus viridis [10] = experiment: as above; settings: 120 g/10a active ingredient, evaluated 14 days after treatment
Summary of the method: as §3

Echinochloa crus-galli [11] = experiment: Test Example 4: herbicidal effect test by treatment of leave and stem in dry field farming (seven days after seeding); settings: 120 g/10a active ingredient; emulsion sprayed seven days after seeding; evaluated 14 days after treatment
Summary of the method: (§4)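 Twenty seeds per species were mixed into the top 1 cm of alluvial soil in 36 cm^2 pots; emulsions were sprayed seven days after seeding at 100 L per 10 ares (120 g active ingredient per 10 ares). Herbicidal rate (%) = {1 − treated/untreated mean dry weight} × 100, 14 days after treatment, duplicate.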

Chenopodium album [12] = experiment: as above; settings: 120 g/10a active ingredient; emulsion sprayed seven days after seeding; evaluated 14 days after treatment
Summary of the method: as §4

southern crabgrass [13] = experiment: as above; settings: 120 g/10a active ingredient; emulsion sprayed seven days after seeding; evaluated 14 days after treatment
Summary of the method: as §4

Amaranthus viridis [14] = experiment: as above; settings: 120 g/10a active ingredient; emulsion sprayed seven days after seeding; evaluated 14 days after treatment
Summary of the method: as §4

SMILES	Herbicidal rate (%) Echinochloa crus-galli (Echinochloa crus-galli [1]) [%]	Herbicidal rate (%) Lindernia pyxidaria [2] [%]	Herbicidal rate (%) Monochoria vaginalis [2] [%]	Herbicidal rate (%) Scirpus juncoides (Scirpus juncoides [3]) [%]	Herbicidal rate (%) Echinochloa crus-galli (Echinochloa crus-galli [4]) [%]	Herbicidal rate (%) Lindernia pyxidaria [5] [%]	Herbicidal rate (%) Monochoria vaginalis [5] [%]	Herbicidal rate (%) Scirpus juncoides (Scirpus juncoides [6]) [%]	herbicidal rate, Echinochloa crus-galli (Echinochloa crus-galli [7]) [%]	herbicidal rate, Chenopodium album (Chenopodium album [8]) [%]	herbicidal rate, southern crabgrass (southern crabgrass [9]) [%]	herbicidal rate, Amaranthus viridis (Amaranthus viridis [10]) [%]	herbicidal effect (herbicidal rate), Echinochloa crus-galli (Echinochloa crus-galli [11]) [%]	herbicidal effect (herbicidal rate), Chenopodium album (Chenopodium album [12]) [%]	herbicidal effect (herbicidal rate), southern crabgrass (southern crabgrass [13]) [%]	herbicidal effect (herbicidal rate), Amaranthus viridis (Amaranthus viridis [14]) [%]
COCC(C)n1oc(=O)c(Cc2ccccc2N(C(=O)Cc2ccccc2)S(=O)(=O)C(F)(F)F)c1C (stereo not shown) [Compound 1-506]	90	90	90	90	90	90	90	90	90	90	90	90	90	40	90	40
CCC(C)n1oc(=O)c(Cc2ccccc2N(C(=O)C2CCCO2)S(=O)(=O)C(F)(F)F)c1C (stereo not shown) [Compound 1-522]	90	90	90	90	90	90	90	90	90	90	90	90	90	40	90	40
CCC(C)n1oc(=O)c(Cc2ccccc2N(C(=O)C2CCCCC2)S(=O)(=O)C(F)(F)F)c1C (stereo not shown) [Compound 1-432]	90	90	90	90	90	90	90	90	90	90	90	90	90	40	90	40
CCC(C)n1oc(=O)c(Cc2ccccc2N(C(=O)c2ccc(C)cc2)S(=O)(=O)C(F)(F)F)c1C (stereo not shown) [Compound 1-494]	90	90	90	90	90	90	90	90	90	90	90	90	90	40	90	40
CCC(C)n1oc(=O)c(Cc2ccccc2N(S(=O)(=O)CC)S(=O)(=O)C(F)(F)F)c1C (stereo not shown) [Compound 1-913]	90	90	90	90	90	90	90	90	90	90	90	90	90	40	90	40
COC(=O)N(c1ccccc1Cc1c(C)n(C(C)c2ccccc2)oc1=O)S(=O)(=O)C(F)(F)F (stereo not shown) [Compound 1-598]	90	90	90	90	90	90	90	90	90	90	90	90	90	40	90	40
CCC(=O)N(c1ccccc1Cc1c(C)n(C(C)CC)oc1=O)S(=O)(=O)C(F)(F)F (stereo not shown) [Compound 1-316]	90	90	90	90	90	90	90	90	90	90	90	90	90	40	90	40
COCC(C)n1oc(=O)c(Cc2ccccc2N(C(=O)CC(C)C)S(=O)(=O)C(F)(F)F)c1C (stereo not shown) [Compound 1-357]	90	90	90	90	90	90	90	90	90	90	90	90	90	40	90	40
CCC(c1ccccc1)n1oc(=O)c(Cc2ccccc2NS(=O)(=O)C(F)(F)F)c1C (stereo not shown) [Compound 1-211]	90	90	90	90	90	60	80	90	90	0	90	0	90	50	60	40
CCCCC(c1ccccc1)n1oc(=O)c(Cc2ccccc2NS(=O)(=O)C(F)(F)F)c1C (stereo not shown) [Compound 1-214]	100	100	90	90	90	70	80	80	80	90	70	90	60	50	50	40
